According to patent US11180462B2, “Microbiocidal oxadiazole derivatives” (SYNGENTA PARTICIPATIONS AG, priority 2015, dated 2021):

Experiments:
[1] = tested on: Phakopsora Pachyrhizi; test: Fungicidal activity against Phakopsora pachyrhizi / soybean / leaf disc preventative (Asian soybean rust); assay type: in vivo; settings: foliar, 200 ppm in the applied formulation, soybean leaf disks, compared to untreated control leaf disks, read-out: disease control
In short: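 Preventative soybean leaf-disc test: discs on water agar sprayed with diluted formulated compound, inoculated one day later with spores on the lower surface. Held 24–36 h dark at 20°C, 75% rh, then 12 h light/day; percent disease control versus untreated discs scored 12–14 days after application.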

[2] = tested on: Puccinia recondita f. Sp. Tritici; test: Fungicidal activity against Puccinia recondita f. sp. tritici / wheat / leaf disc curative (brown rust); assay type: in vivo; settings: foliar, 24 h, 200 ppm in the applied formulation, wheat leaf segments, curative (applied 1 day after inoculation), compared to untreated control leaf disks, read-out: disease control
In short: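 Segments of wheat cv. Kanzler were laid on agar and inoculated with a spore suspension of the rust, then held in darkness at 19° C and 75% relative humidity. One day later the water-diluted formulated compound was applied, with incubation continued under a 12 h light/dark cycle.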

[3] = tested on: Glomerella lagenarium (Colletotrichum lagenarium); test: Fungicidal activity against Glomerella lagenarium (Colletotrichum lagenarium) liquid culture / cucumber / preventative (anthracnose); assay type: cell-based; settings: Colletotrichum orbiculare; 20 ppm in the applied formulation; liquid culture (PDB), growth inhibition measured photometrically after 3 to 4 days; compared to untreated control; read-out: disease control
In short: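 Photometric read-out of fungal growth after 2–7 days, expressed as percent antifungal activity versus untreated check. Cryo-stored conidia in PDB; compound at 20 ppm; dark, 24 °C, 96% RH.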

[4] = tested on: Puccinia recondita f. Sp. Tritici; test: Fungicidal activity against Puccinia recondita f. sp. tritici / wheat / leaf disc preventative (brown rust); assay type: in vivo; settings: foliar, 200 ppm in the applied formulation, wheat leaf segments, preventative, compared to untreated control leaf disks, read-out: disease control
In short: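 Preventative leaf-segment test, wheat cv. Kanzler on water agar. Spray compound at 200 ppm, inoculate with spores 1 day later; 19° C., 75% rh, 12/12 h light. Read-out: % disease control vs untreated, 7 to 9 days after application.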

CCN(C)C(=O)N(Cc1ccc(-c2noc(C(F)(F)F)n2)cc1)OC [Compound 3.17, 1-ethyl-3-methoxy-1-methyl-3-[[4-[5-(trifluoromethyl)-1,2,4-oxadiazol-3-yl]phenyl]methyl]urea]
≥ 80%: pest or weed control at 200 ppm [1] | pest or weed control at 200 ppm [2] | inhibition of growth at 20 ppm [3] | pest or weed control at 200 ppm [4]

CC1(C(=O)N(Cc2ccc(-c3noc(C(F)(F)F)n3)cc2)CC2CC2)CC1 [Compound 1.226, N-(cyclopropylmethyl)-1-methyl-N-[[4-[5-(trifluoromethyl)-1,2,4-oxadiazol-3-yl]phenyl]methyl]-cyctopropane-carboxamide]
≥ 80%: pest or weed control at 200 ppm [1] | pest or weed control at 200 ppm [2] | inhibition of growth at 20 ppm [3] | pest or weed control at 200 ppm [4]

CC(C)N(Cc1ccc(-c2noc(C(F)(F)F)n2)cc1)C(=O)CC(F)(F)F [Compound 1.686, 3,3,3-trifluoro-N-isopropyl-N-[[4-[5-(trifluoromethyl)-1,2,4-oxadiazol-3-yl]phenyl]methyl]-propanamide]
≥ 80%: pest or weed control at 200 ppm [1] | pest or weed control at 200 ppm [2] | inhibition of growth at 20 ppm [3] | pest or weed control at 200 ppm [4]

COC(C)C(=O)N(Cc1ccc(-c2noc(C(F)(F)F)n2)cc1)C1CC1 (stereo not drawn) [Compound 1.147, N-cyclopropyl-2-methoxy-N-[[4-[5-(trifluoromethyl)-1,2,4-oxadiazol-3-yl]phenyl]methyl]-propanamide]
≥ 80%: pest or weed control at 200 ppm [1] | pest or weed control at 200 ppm [2] | inhibition of growth at 20 ppm [3] | pest or weed control at 200 ppm [4]

O=C(C1CCCO1)N(Cc1ccc(-c2noc(C(F)(F)F)n2)cc1)C1CC1 (stereo not drawn) [Compound 1.145, N-cyclopropyl-N-[[4-[5-(trifluoromethyl)-1,2,4-oxadiazol-3-yl]phenyl]methyl]-tetrahydrofuran-2-carboxamide]
≥ 80%: pest or weed control at 200 ppm [1] | pest or weed control at 200 ppm [2] | inhibition of growth at 20 ppm [3] | pest or weed control at 200 ppm [4]

O=C(C1CC1(Cl)Cl)N(Cc1ccc(-c2noc(C(F)(F)F)n2)cc1)C1CC1 (stereo not drawn) [Compound 1.125, 2,2-dichloro-N-cyclopropyl-N-[[4-[5-(trifluoromethyl)-1,2,4-oxadiazol-3-yl]phenyl]methyl]-cyclopropane-carboxamide]
≥ 80%: pest or weed control at 200 ppm [1] | pest or weed control at 200 ppm [2] | inhibition of growth at 20 ppm [3] | pest or weed control at 200 ppm [4]

CCC(=O)N(Cc1ccc(-c2noc(C(F)(F)F)n2)c(F)c1)OC [Compound 1.580, N-[[3-fluoro-4-[5-(trifluoromethyl)-1,2,4-oxadiazol-3-yl]phenyl]methyl]-N-methoxy-propanamide]
≥ 80%: pest or weed control at 200 ppm [1] | pest or weed control at 200 ppm [2] | inhibition of growth at 20 ppm [3] | pest or weed control at 200 ppm [4]

COCCCC(=O)N(C)Cc1ccc(-c2noc(C(F)(F)F)n2)cc1 [Compound 1.526, 4-methoxy-N-methyl-N-[[4-[5-(trifluoromethyl)-1,2,4-oxadiazol-3-yl]phenyl]methyl]-butanamide]
≥ 80%: pest or weed control at 200 ppm [1] | pest or weed control at 200 ppm [2] | inhibition of growth at 20 ppm [3] | pest or weed control at 200 ppm [4]

CCC(C)C(=O)N(Cc1ccc(-c2noc(C(F)(F)F)n2)cc1)Cc1ccco1 (stereo not drawn) [Compound 1.466]
≥ 80%: pest or weed control at 200 ppm [1] | pest or weed control at 200 ppm [2] | inhibition of growth at 20 ppm [3] | pest or weed control at 200 ppm [4]
